{"source": "patent US20110052684A1", "about": "“PHARMACEUTICAL COMPOSITION” (priority 2008, published 2011)", "format_in_all_cases": "physicochemical", "key": {"[1]": {"assay": "pKa (physicochemistry of the actives)", "excerpt": "The synchronous release of the combination of actives comprising the once-daily pharmaceutical compositions of the present invention is particularly surprising when one considers that the differing physicochemical characteristics of the active ingredients and the likely differences in the permeability coefficients for the combination of active drugs would result in a differing rate and extent of drug release for each of the drugs chosen to be part of the combination. Accordingly, it was expected that it would be difficult to optimize the release kinetics of the combination of drugs contemplated without one drug potentially negatively influencing the release kinetics of the other drug of the combination."}, "[2]": {"assay": "Dissolution, 900 ml 0.1N HCl, USP Apparatus 1, 75 rpm, 37° C.", "settings": "Example 29 homogenous CR tablet (batch no. 08070T)", "procedure": "(§1) The dissolution profile of the above pharmaceutical composition was determined under the dissolution conditions described below in Tables 1A, 1B, and 1C."}, "[3]": {"assay": "Dissolution, 900 ml pH 6.8 phosphate buffer, USP Apparatus 1, 75 rpm, 37° C.", "settings": "Example 29 homogenous CR tablet (batch no. 08070T)", "procedure": "as §1"}, "[4]": {"assay": "Dissolution, 900 ml pH 7.5 phosphate buffer, Apparatus 1, 75 rpm, 37 C.", "procedure": "FIG. 27 is a graph depicting the dissolution profile in 900 ml of pH 7.5 phosphate buffer using USP Apparatus 1 at 75 rpm at 37° C. of the composition described in Example 27.\nFIG. 28 is a graph depicting the dissolution profile in 900 ml of pH 7.5 phosphate buffer using USP Apparatus 1 at 75 rpm at 37° C. of the composition described in Example 28.\nThe dissolution profile of the above pharmaceutical composition was determined under the dissolution conditions described below in Table 27.\nThe dissolution profile of the above pharmaceutical composition was determined under the dissolution conditions described below in Table 28. The result of the dissolution testing is presented as a % of the total tramadol HCl and meloxicam in the controlled release tablet (batch 1258-175) and also depicted in FIG. 28."}}, "note": "Structures can show the parent of a compound that is named as a salt."}
{"molecule": "CC(NC(C)(C)C)C(=O)c1cccc(Cl)c1", "note": "(stereo not shown) [Bupropion HBr, bupropion hydrobromide]", "values": [{"measurement": "pKa", "setting": "[1]", "result": 7.8}]}
{"molecule": "OCCOCCN1CCN(C2=Nc3ccccc3Sc3ccccc32)CC1", "note": "[Quetiapine Fumarate, quetiapine fumarate]", "values": [{"measurement": "pKa", "setting": "[1]", "result": 3.3}]}
{"molecule": "COc1cccc(C2(O)CCCCC2CN(C)C)c1", "note": "(stereo not shown) [Tramadol HCl]", "values": [{"measurement": "% Released", "setting": "[2]; 0.5 hr", "result": 18, "unit": "%"}, {"measurement": "% Released", "setting": "[2]; 1 hr", "result": 28, "unit": "%"}, {"measurement": "% Released", "setting": "[2]; 2 hr", "result": 42, "unit": "%"}, {"measurement": "% Released", "setting": "[2]; 3 hr", "result": 53, "unit": "%"}, {"measurement": "% Released", "setting": "[2]; 4 hr", "result": 62, "unit": "%"}, {"measurement": "% Released", "setting": "[2]; 5 hr", "result": 70, "unit": "%"}, {"measurement": "% Released", "setting": "[2]; 6 hr", "result": 76, "unit": "%"}, {"measurement": "% Released", "setting": "[2]; 8 hr", "result": 86, "unit": "%"}, {"measurement": "% Released", "setting": "[2]; 10 hr", "result": 93, "unit": "%"}, {"measurement": "% Released", "setting": "[2]; 12 hr", "result": 97, "unit": "%"}, {"measurement": "% Released", "setting": "[3]; 0.5 hr", "result": 19, "unit": "%"}, {"measurement": "% Released", "setting": "[3]; 1 hr", "result": 29, "unit": "%"}, {"measurement": "% Released", "setting": "[3]; 2 hr", "result": 44, "unit": "%"}, {"measurement": "% Released", "setting": "[3]; 3 hr", "result": 55, "unit": "%"}, {"measurement": "% Released", "setting": "[3]; 4 hr", "result": 65, "unit": "%"}, {"measurement": "% Released", "setting": "[3]; 5 hr", "result": 72, "unit": "%"}, {"measurement": "% Released", "setting": "[3]; 6 hr", "result": 79, "unit": "%"}, {"measurement": "% Released", "setting": "[3]; 8 hr", "result": 90, "unit": "%"}, {"measurement": "% Released", "setting": "[3]; 10 hr", "result": 98, "unit": "%"}, {"measurement": "% Release", "setting": "[4]; 2 hrs, Example 27 controlled release tablet (batch 1258-171), ethylcellulose coating", "result": 51, "unit": "%"}, {"measurement": "% Release", "setting": "[4]; 2 hrs, Example 28 controlled release tablet (batch 1258-175), Kollicoat SR 30D coating", "result": 0, "unit": "%"}, {"measurement": "% Release", "setting": "[4]; 4 hrs, Example 27 controlled release tablet (batch 1258-171), ethylcellulose coating", "result": 70, "unit": "%"}, {"measurement": "% Release", "setting": "[4]; 4 hrs, Example 28 controlled release tablet (batch 1258-175), Kollicoat SR 30D coating", "result": 7, "unit": "%"}, {"measurement": "% Release", "setting": "[4]; 8 hrs, Example 27 controlled release tablet (batch 1258-171), ethylcellulose coating", "result": 96, "unit": "%"}, {"measurement": "% Release", "setting": "[4]; 8 hrs, Example 28 controlled release tablet (batch 1258-175), Kollicoat SR 30D coating", "result": 61, "unit": "%"}, {"measurement": "% Release", "setting": "[4]; 10 hrs, Example 27 controlled release tablet (batch 1258-171), ethylcellulose coating", "result": 100, "unit": "%"}, {"measurement": "% Release", "setting": "[4]; 10 hrs, Example 28 controlled release tablet (batch 1258-175), Kollicoat SR 30D coating", "result": 74, "unit": "%"}, {"measurement": "% Release", "setting": "[4]; 16 hrs, Example 27 controlled release tablet (batch 1258-171), ethylcellulose coating", "result": 100, "unit": "%"}, {"measurement": "% Release", "setting": "[4]; 16 hrs, Example 28 controlled release tablet (batch 1258-175), Kollicoat SR 30D coating", "result": 84, "unit": "%"}]}
